The experiment has as its target T1, Porcine PLA2 IB (Sus scrofa, UniProt P00592).
T1 construct: purchased
In words: Continuous fluorimetric PLA2 assay, PPyrPG vesicles (Example 1B-1). Format: biochemical. The conditions noted are these: restated in Example 10, refers to Example 1B-1; read-out: IC-50 value. From the text:
A continuous fluorimetric assay for PLA2 activity described in the literature was used to determine IC (Leslie, C C and Gelb, M H (2004) Methods in Molecular Biology “Assaying phospholipase A2 activity”, 284: 229-242, Singer, A G, et al. (2002) Journal of Biological Chemistry “Interfacial kinetic and binding properties of the complete set of human and mouse groups I, II, V, X, and XII secreted phospholipases A2”, 277: 48535-48549, Bezzine, S, et al. (2000) Journal of Biological Chemistry “Exogenously added human group X secreted phospholipase A(2) but not the group IB, IIA, and V enzymes efficiently release arachidonic acid from adherent mammalian cells”, 275: 3179-3191) and references therein.
Generally, this assay used a phosphatidylglycerol (or phosphatidylmethanol) substrate with a pyrene fluorophore on the terminal end of the sn-2 fatty acyl chain. […] The effect of a given inhibitor and inhibitor concentration on any given phospholipase can be determined. […]
In this example, the procedure was performed as follows: • 1. […] The fluorescence was read using an excitation of 342 nm and an emission of 395 nm.
In this example, the IC50 was calculated using the BioDataFit 1.02 (Four Parameter Model) software package. […]

T1 sequence (P00592 23-146): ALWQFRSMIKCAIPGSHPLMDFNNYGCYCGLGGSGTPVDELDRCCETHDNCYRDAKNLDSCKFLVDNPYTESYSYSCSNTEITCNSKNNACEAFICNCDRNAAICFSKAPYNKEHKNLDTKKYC

Take `Cc1c(C(=O)C(N)=O)c2c(OCC(=O)O)cccc2n1Cc1ccccc1-c1ccccc1` [ILY-4001, 2-(3-(2-amino-2-oxoacetyl)-1-(biphenyl-2-ylmethyl)-2-methyl-1H-indol-4-yloxy)acetic acid]: the IC50 is ~0.062 µM.

The record behind these values is patent US20070135383A1, “Phospholipase inhibitors, including multi-valent phospholipase inhibitors, and use thereof, including as lumen-localized phospholipase inhibitors” (priority 2005, published 2007).
